Test results reported in US20180155737A1, “METHOD FOR MODULATING PLANT ROOT ARCHITECTURE” (priority 2012, published 2018).
“Also recorded” adds a separate entry of the source. Square brackets hold non-standard residues; d marks the D form. Ends that are not written are not given here. Hyp = O=C(O)[C@@H]1C[C@@H](O)CN1

Assays:
[1] = test system: Arabidopsis thaliana WT Col plants; test: RAR bioactivity in Arabidopsis at different concentrations; format: in vivo
Description: To investigate the effect of different modifications on peptide bioactivity, several peptides were assayed for activity at different concentrations (Table 4), WT Col plants were grown vertically on ½ MS plates with 1% phytagel and containing varying concentration of RAR peptide ranging from 10^−6 M to 10^−12 M or no peptide. Plates were imaged at 12 days.

[2] = test system: M. truncatula roots; test: Exogenous application of synthetic RAR peptides to M. truncatula roots (lateral roots, CCP sites/bumps, root growth); format: in vivo, Medicago truncatula; conditions: for Periodic bump (CCP site) formation: synthetic peptide applied to roots
Description: Seeds of M. truncatula cv Jemalong genotype A17 wild-type and M. truncatula 2HA line carrying either GH3 promoter-GUS reporter fusion gene (GH3:GUS) were grown under standard conditions (Holmes P, Goffard N, Weiller G F, Rolfe B G, & Imin N (2008), “Transcriptional profiling of Medicago truncatula meristematic root cells”, BMC Plant Biol 8:21).
The RAR peptides were synthesized at the Biomolecular Resource Facility, The Australian National University. The 15 amino acid (aa) peptides corresponding to the conserved domains of MtRAR1 (AFQHypTTPGNSHypGVGH and […]ypGVGH, where Hyp indicates hydroxy proline residue) and M. hapla MhRAR2 (AFRHypTAPGHSHypGVGH) were synthesized and validated as previously described in Djordjevic M A. et al. (2011), “Border sequences of Medicago truncatula CLE36 are specifically cleaved by endoproteases common to the extracellular fluids of Medicago and soybean”. J Exp Bot 62(13):4649-4659. The root length of wild-type plants was measured four days after transfer to Fåhraeus-medium containing the synthetic peptide. For the hormone assays, A17 plants were grown on Fåhraeus-medium for 10 days before transferring to Fåhraeus-medium containing 10^−6 M of the respective phytohormones; 1-aminocyclopropant-1-carboxylic acid (ACC), 6-benzylaminopurine (BAP), gibberallic acid (GA), synthetic analog of strigolactone (GR24), methyljasmonate (MeJA) and 1-naphthaleneacetic acid (NAA).

[3] = test system: soybean seedlings; test: Liquid culture, root formation of soybean seedlings; format: in vivo; conditions: 1 μM peptide
Description: The plants were grown in liquid supplemented with F medium with or without peptides for two weeks. The medium contained 5 mM KNO3. GmRAR peptide: NFR(P)TAPGHS(P)GVGH where (P) is hydroxyproline. Students' t-test, **; P<0.01; N>6. Error bars represent SE.
The plants were grown in liquid supplemented with F medium with or without peptides for two weeks. The media contained 5 mM KNO3. GmRAR peptide: […] where (P) is hydroxyproline.
Primary root length was also affected (FIG. 21).

[4] = test system: rice seedlings; test: Liquid culture (half strength MS), root formation of rice seedlings; format: in vivo; conditions: 1 μM peptide
Description: The plants were grown in liquid media containing half strength MS media with or without peptides for two weeks. Monocot RAR peptide: DTRATDFGHS(P)GAGH where (P) is hydroxyproline. Students' t-test, *: P<0.05; N>6. Error bars represent SE.
The plants were grown in liquid media containing half strength MS media with or without peptides for two weeks. Monocot RAR peptide: DTRATDPGHS(P)GAGH where (P) is hydroxyproline:
Primary root length was also affected (FIG. 23).

[5] = test system: M. truncatula root nodulation by S. meliloti; test: Nodulation with S. meliloti of peptide-treated M. truncatula plants; format: in vivo, Medicago truncatula
Description: The 3-weeks old transformed hairy-roots plants were first transferred to a modified Fahraeus media without […] and kanamycin to starve the plants of nitrogen for 4 days. Inoculation with Sinorhizobium meliloti was done as described in Saur I M, Oakes M, Djordjevic M A, & Imin N (2011), “Crosstalk between the nodulation signaling pathway and the autoregulation of modulation in Medicago truncatula”, New Phytol 190(4):[…].
(§1) (b) partial nitrate tolerance of nodule development induced by WSM1022 on MtRAR1 over-expressing plants. Three weeks old composite plants were inoculated and scored two weeks post inoculation. N≥30. student's t-test; *; P<0.05; **; P<0.01; ***; P<0.001. (e) Acetylene reduction assay. MtRAR1 treated (1 μM) and non treated wild-type plants grown in Fåhraeus medium were harvested at 2 week post inoculation by S. meliloti WSM1022. Nitrogenase activity was calculated from peak areas of samples relative to acetylene and ethylene standards to obtain nmoles ethylene/min. N≥3, student's t-test; *: P<0.05; **: P<0.01. Error bars indicate SE. (d) Inoculation of plants with performed CCPs led to root nodule formation at CCP sites at 25 mM KNO3. Arrow head: CCP sites: Arrows: nodules. […] Scale bar: 100 μm. Plants were grown at 20° C.
FIG. 32 M. truncatula plants were grown in 0.8% agar-containing plates supplemented with F media with or without MtRAR1 peptide. Five-day old seedlings were inoculated with S. meliloti strain WSM1022 and further grown for two mom weeks. MtRAR1 Domain 1: AFQ(P)TTPGNS(P)GVGH: MtRAR1 Domain 1 with G−>A transition: AFQ(P)TTPANS(P)GVGH. (P) is hydroxylproline and the altered amino acid is underlined.

[6] = test system: microtom tomato seedlings; test: Plate assay, lateral root formation on microtom tomato seedlings; format: in vivo; conditions: 1 μM peptide
Description: The plants were grown so 0.8% agar-containing plates supplemented with F media with or without peptides for two weeks. The media contained 5 mM KNO3. MtRAR1 peptide: […] where (P) is hydroxyproline. Students' t-test, **: P<0.01; N>12. Error bars represent SE.
The plants were grows in 0.8% agar-containing plates supplemented with F media with or without peptides for two weeks. The medium contained 5 mM KNO3. MtRAR1 peptide: FQ(P)TTPGNS(P)GVGH where (P) is hydroxyproline.
Primary root length was not affected (FIG. 6).

[7] = test system: Lucerne (M. sativa); test: Lateral root formation of plants grown in magenta jars with peptide; format: in vivo; conditions: 1 μM peptide
Description: (§2) M. truncatula, M. sativa, Subterranean Clover Cultivar Woogenellup and white clover (Trifolium repens) plants were grown in 0.4% agar-containing magenta jars supplemented with F media with or without peptides for two weeks. The media contained 5 mM KNO3. MtRAR1 peptide: FQ(P)TTPGNS(P)GVGH where (P) is hydroxyproline. Students' t-test *: P<0.05; **; P<0.01; ***: P<0.001; N>12. Error bars represent SE.
The plants were grown in 0.4% agar-containing magenta jars supplemented with F media with or without peptides for two weeks. The medium contained 5 mM KNO3. MtRAR1 peptide: FQ(P)TTPGNS(P)GVGH where (P) is hydroxyproline.
(§3) To further validate and exemplify the RAR technology, we have examined RAR peptide addition of roots of various plant species.

[8] = test system: Nitrogenase activity; test: Acetylene reduction assay (nitrogenase activity) of plants inoculated with S. meliloti WSM1022; format: in vivo, Medicago truncatula; conditions: 1 μM peptide
Description: as §1

[9] = test system: white clover (Trifolium repens); test: Lateral root formation of plants grown in magenta jars with peptide; format: in vivo; conditions: 1 μM peptide
Description: as §2
The plants were grown in 0.4% agar-containing magenta jars supplemented with F medium with on without peptides for two weeks. The media contained 5 mM KNO3. MtRAR1 peptide: […] where (P) is hydroxyproline.
as §3

[10] = test system: Subterranean Clover Cultivar Woogenellup; test: as above; format: in vivo; conditions: 1 μM peptide
Description: as §2
The plants were grows in 0.4% agar-containing magenta jars supplemented with F media with or without peptides for two weeks. The media contained 5 mM KNO3. MtRAR1 peptide: FQ(P)TTPGNS(P)GVGH where (P) is hydroxyproline.
as §3

[11] = test system: M. truncatula; test: as above; format: in vivo, Medicago truncatula; conditions: 1 μM peptide, 5 mM KNO3, two weeks, P<0.05
Description: as §2, §3

[12] = test system: Arabidopsis thaliana WT Col plants; test: Rescue: transfer of Arabidopsis plants between RAR and no RAR plates; format: in vivo
Description: To investigate whether the effect of RAR peptide addition could be released, WT Col plants were grown vertically for 6 days on […] plates with 1% phytagel. Plants were transferred from plates containing no RAR or 1 μM RAR6 hyP peptide (pre-treatment) to plates containing no RAR or 1 μM RAR6 hyP peptide as specified where they were left to grow for a further 6 days before being analysed.

[13] = test system: Arabidopsis thaliana WT Col plants; test: Time course of RAR action in Arabidopsis over 12 days; format: in vivo; conditions: 1 μM
Description: To see how RAR was exerting its effect on PR growth and lateral root emergence and growth, a time course was performed over 12 days, WT Col plants were grown vertically on ½ MS with 1% phytagel and 1 μM RAR6 hyP or no peptide, with 16 hr days at 22° C. Plates were scanned every day for 12 days.

[14] = range tested 10^−6 M to 10^−12 M, 12 days

D F V P T S P G N S P G V G H (DFVPTSPGNSPGVGH) [RAR5 no HyP]
Concentration at which the peptide is active [1, 14]: 10^−9 M

AFR[Hyp]TAPGHS[Hyp]GVGH [MhRAR2]
Periodic bump (CCP site) formation [2]: Maximum CCP site generation; also recorded: Periodic bumps

NFR(P)TAPGHS(P)GVGH [GmRAR peptide]
Primary root length [3]: affected
Number of roots ([3]; liquid F medium, 5 mM KNO3, two weeks, P<0.05): reduction

D F V hyP T S P G N S hyP G V G H [RAR5 hyP]
Concentration at which the peptide is active [1, 14]: 10^−8 M

DTRATDPGHS(P)GAGH [Monocot RAR peptide]
Primary root length [4]: affected
Number of roots ([4]; liquid half strength MS, two weeks, P<0.05): reduction

D F R hyP T (p-T) P G H S hyP G I G H [RAR6 phos]
Activity relative to the non-phosphorylated RAR6 peptide ([1]; in vivo): 1000 ×
Concentration range at which the peptide is active (in words) [1, 14]: picomolar

D F V hyP T (p-S) P G N S hyP G V G H [RAR5 phos]
Effect of phosphorylation on activity ([1]; Arabidopsis RAR5): enhances activity

AFQ(P)TTPANS(P)GVGH [MtRAR1 Domain 1 with G−>A transition]
Nodule numbers ([5]; 1 μM peptide, 5 mM and 25 mM KNO3, trend = significant increase as with MtRAR1 over-expression): non-functional
Inhibition of lateral root emergence (structure activity relationship of peptide variants) ([2]; compared with MtRAR1 peptide): greatly attenuated

AFQ[Hyp]TTPGNS[Hyp]GVGH [MtRAR1 peptide]
Primary root length [6]: not affected
Number of lateral roots ([6]; 5 mM KNO3, two weeks, P<0.05): reduction
CCP (bump) site formation [7]: formed CCP
Lateral root emergence ([7]; 5 mM KNO3, two weeks, P<0.05): significantly inhibited
Increase in nitrogenase activity ([8]; 0 mM KNO3, 2 week post inoculation): 35%
Increase in nitrogenase activity ([8]; 5 mM KNO3, 2 week post inoculation): 200%
CCP (bump) site formation [9]: formed CCP
Lateral root emergence ([9]; 5 mM KNO3, two weeks, P<0.05): significantly inhibited
Numbers of pink functional nodules ([5]; 1 μM peptide, 5 mM and 25 mM KNO3, compared to controls): significantly higher numbers
Nodule development (nodule sections) ([5]; 0.5 mM or 25 mM KNO3, three weeks, versus untreated plants): accelerated nodule development
Nodule size ([5]; all across the nitrate regimen, versus no peptide or G->A peptide): much larger
CCP (bump) site formation [10]: formed CCP
Lateral root emergence ([10]; 5 mM KNO3, two weeks, P<0.05): significantly inhibited
Lateral root emergence [11]: significantly inhibited
Main root growth ([2]; 10^−6 M peptide): significantly inhibited
Lateral root formation ([2]; A17 plants, F medium containing 25 mM KNO3, 10^−6 M peptide): significantly reduced
Concentration for dose-dependent inhibition of lateral root emergence ([2]; in vivo): greater than 10^−7 M
Periodic bump (CCP site) formation [2]: Maximum CCP site generation; also recorded: Periodic bumps

D F R hyP T T P G H S hyP G I G H [RAR6 hyP]
Primary root length of plants pre-treated with RAR and transferred to no RAR versus plants exposed to RAR continuously ([12]; 1 μM, 6 + 6 days, p<0.05): significantly higher
Number of lateral roots after transfer to no RAR, by pre-treatment ([12]; 6 days pre-treatment with 1 μM or no RAR, then 6 days no RAR): the same
PR length, treated versus untreated ([13]; 2 days post imbibing): no significant difference
PR length, treated versus untreated ([13]; from day 3 onwards): significantly shorter
Number of lateral roots, treated versus untreated ([13]; scanned every day for 12 days): not significantly different until day 8
